Assay results as given in patent US9877949B2, “Anticancer treatment methods involving analogs and derivatives of 3-(2-substituted-ethyl) indole compounds” (TUSKEGEE UNIVERSITY, priority 2013, dated 2018).
Values joined by “and” are separate entries in the source; they are usually repeats but may differ in a detail not shown here. Identical values can stand only once. Like-named read-outs stand apart in the source and are kept apart here.

Columns and labels:
SW480 cells [1] = experiment: Microphotographs of cells for signs of apoptosis (membrane blebs); type: cell-based; conditions: for sign of cell apoptosis, single agent: SW480, 25 ng/ml TNFα alone or 5 μM 3-(2-bromoethyl) indole alone
Procedure: Microphotographs were taken of SW480 cells treated with vehicle control (DMSO) (top left), 25 ng/ml TNFα (top right), 5 μM 3-(2-bromoethyl) indole (bottom left), and a combination of 25 ng/ml TNFα and 5 μM 3-(2-bromoethyl) indole (bottom right).
(§1) Second, it was determined whether cytokine-induced NF-kB activation can be blocked by 3-(2-bromoethyl) indole. In prior studies, SW480-NFL cells were tested and confirmed as being responsive to TNFα, a canonical NF-kB pathway inducer, and various clinical chemotherapeutic drugs. To this end, TNFα was first used to activate NF-kB in these reporter cells. It was examined whether co-treatment would interfere with activation of the NF-kB pathway. SW480-NFL cells were treated with 25 ng/ml TNFα as an activator, and with 0.5 μM, 5 μM, or 10 μM BEI-9 as test compound. […] The effect of such a combination treatment is shown in the […] microphotograph in FIG. 14. Referring to FIG. 14, microphotographs were taken of SW480 cells treated with vehicle control (DMSO) (top left), 25 ng/ml TNFα (top right), 5 μM 3-(2-bromoethyl) indole (bottom left), and a combination of 25 ng/ml TNFα and 5 μM 3-(2-bromoethyl) indole (bottom right). Accordingly, in addition to inhibiting NF-kB activation, the addition of 3-(2-bromoethyl) indole to TNFα treated cells may divert TNF receptor-initiated receptor signaling towards apoptosis.

SW480 colon cancer cells [2] = experiment: Recovery after wash-out of compound; type: cell-based; conditions: SW480, 25 μM for 48 hours, then four days in fresh medium
Procedure: To examine if treated cells would recover after the compound was washed out, SW480 colon cancer cells were treated with 25 μM 3-(2-bromoethyl) indole for 48 hours, then the monolayer was rinsed 3 times with culture medium to remove the compound. The cell monolayers were left in the fresh growth medium for four days of further incubation. Results shown in FIG. 10 reveal that the vehicle-treated SW480 cells rapidly grew to full confluency in just 48 hours.

SW480 cancer cells = experiment: Cell cycle analysis by flow cytometry; type: cell-based
Procedure: (§2) SW480 colon cancer cells were treated with either vehicle control (DMSO) or 25 μM 3-(2-bromoethyl) indole. […] By comparison, vehicle-treated cells rapidly proliferated and visibly filled the surface on which they were seeded. Microphotographs were taken 24 hours (a and c) and 48 hours (b and d) after the treatments. […] To further examine the possibility of inhibited cell proliferation, cell cycle analysis was performed by flow cytometry on cells that were treated with 50 μM 3-(2-bromoethyl) indole for 24 and 48 hours. […] In fact, the specific effect of treating cells with 3-(2-bromoethyl) was to “freeze” the cell growth during treatment. This is illustrated in FIG. 3.
(§3) Increasing concentrations of 3-(2-bromoethyl) indole (from 12.5 μM to 100 μM) were tested on SW480 colon cancer cells, and viability of the treated cells was measured by the CellTiter-Glo® (Promega® Corporation) method. […] Similarly, dose response examination and cell cycle analysis using variable concentrations of 3-(2-bromoethyl) indole ranging from 12.5 to 100 μM confirms that even doses lower than 50 μM inhibit cell proliferation. Thus, useful embodiments of the present invention provide for a method of inhibiting cancer cell proliferation, comprising treating the cancer cells with 3-(2-bromoethyl) indole with concentrations of greater than or equal to 0.2 μM, or in a range of 1.0 μM to 50.0 μM, or more specifically, from 5.0 μM to 25.0 μM.
It was also examined by flow cytometry whether the combination of CPT and BEI-9 would induce cell apoptosis as measured by accumulation of sub-G1 population. […] Referring to FIG. 17, cell cycle profiles of parental SW480 cells treated with DMSO (a), BEI-9 (b), CPT (c), BEI-9 and CPT co-treatment (d) or 24 hours of CPT followed by 24 hours of only BEI-9 (e) are shown. The short arrow points to the sub-G1 population of cells resulting from the combination treatment.

HCT116 cells [3] = experiment: Microphotograph dose response of proliferation; type: cell-based; conditions: 5 μM and 10 μM
Procedure: (§4) The activity of 3-(2-bromoethyl) indole on another colon cancer cell line, HCT116, was also tested. […] The absorbance reading at a wavelength of 490 nm is shown on the Y-axis.

luciferase [4] = experiment: ATP-dependent cell viability with CellTiter-Glo kit, competition with cellular ATP; type: cell-based; conditions: 10 μM
Procedure: (§5) Luciferase reporter assays are dependent on the activity of the luciferase enzyme to catalyze the conversion of luciferin to oxyluciferin in the presence of ATP and oxygen, generating light in the process. Therefore, compounds that may directly interfere with the enzyme activity should be distinguished from those that inhibit the signaling activity reported inside the cells. To test this, a PXR-luciferase reporter system expressed in HepG2 cells was used and a luciferase assay was performed by adding 10 μM BEI-9 to the cells five minutes before measuring luciferase catalyzed reactions. In parallel, ATP-dependent cell viability was also measured using a CellTiter-Glo® kit to examine if BEI-9 would compete with cellular ATP, which is required for the luciferase activity.

luciferase [5] = target: T1, luciferase (Photinus pyralis, UniProt P08659); type: cell-based; conditions: HepG2 PXR-luciferase, 10 μM added five minutes before measuring
T1 construct: expressed in transfected cells; host or cells: HepG2
Procedure: as §5

NF-kB [6] = experiment: NF-kB luciferase reporter assay in SW480-NFL cells; type: cell-based
Source text: One of the regulators of cyclin D1 is the multifunctional transcription factor NF-kB. The effect of 3-(2-bromoethyl) indole on NF-kB signaling was also examined. […] In carrying out the test, NF-kB reporter SW480 cells (SW-NFL) were used. The cells were stably transduced with a construct containing NF-kB-response elements linked to the luciferase gene as the reporter. Previous work has shown that these cells activate NF-kB in response to TNFα, as well as some clinically used chemotherapeutic drugs. As an experimental response to NF-kB activation, these cells express increased amounts of luciferase enzyme, which can be detected by luminescence assay.
First, the effect of 3-(2-bromoethyl) indole and each of the thirteen other indole compounds on the basal levels of luciferase activity was assessed. An equal number of SW480-NFL cells seeded in a 96-well plate were treated with control vehicle (DMSO) or one of the fourteen indole-derivative test compounds. Luciferase enzyme activity was measured 24 hours after the treatment. […] See FIG. 12, where BEI-9 is the 9th indole test sample depicted in the graph.
as §1
In prior art, it has been shown that camptothecin (also referred to herein as “CPT”), one of adjuvant drugs clinically used to treat various types of cancers, activates NF-kB in SW480 reporter cells at peak activating concentrations of 0.5 μM or 1.0 μM. The consequence of NF-kB activation as a result of treatment with adjuvant chemotherapy drugs is still under study. To examine whether a combination of CPT with BEI-9 suppresses a drug-induced NF-kB response in SW480 reporter cells, such cells were treated with 0.5 μM CPT and varying concentrations (0.2 μM-12.5 μM) of BEI-9.

SW480 colon cancer cells [7] = experiment: Microscopic evaluation of cell proliferation; type: cell-based; conditions: SW480, 25 μM, 24 and 48 hours
Procedure: as §2
Increasing concentrations of 3-(2-bromoethyl) indole (from 12.5 μM to 100 μM) were tested on SW480 colon cancer cells, and viability of the treated cells was measured by the CellTiter-Glo® (Promega® Corporation) method. […] Similarly, dose response examination and cell cycle analysis using variable concentrations of 3-(2-bromoethyl) indole ranging from 12.5 to 100 μM confirms that even doses lower than 50 μM inhibit cell proliferation. […]

cyclin A = experiment: Immunoblotting of cyclin A protein level; type: cell-based; conditions: SW480, immunoblotting
Procedure: (§6) Progression through the cell cycle is regulated by cyclins and their enzyme partner, cyclin dependent kinases (CDK). The regulation of the cyclin-CDK pair activity is controlled by synthesis and degradation of the cyclin moiety. Cyclin D1 is one of the regulatory cyclins involved in the G1-S transition of cells, and is a known oncogene. As cyclin D1 is a key regulator of cell cycle progression, levels of cyclin D1 protein in both control cells and treated cells were assessed by immunoblotting. Also assessed were the levels of cyclin A, another cyclin regulating both G1-S as well as G2-M transitions. […] Accordingly, inhibiting the expression of cyclins likely contributes to the observed “freezing” effect described previously.

cyclin D1 = experiment: Immunoblotting of cyclin D1 protein level; type: cell-based; conditions: SW480, immunoblotting
Procedure: as §6

SW480 colon cancer cells [8] = experiment: CellTiter-Glo cell viability; type: cell-based; conditions: Homo sapiens; SW480, 12.5 μM; read-out: reduction in cell viability
Procedure: as §3

SW480 colon cancer cells [9] = experiment: MTT assay of cell viability and proliferation; type: cell-based
Procedure: SW480 colon cancer cells were treated with solvent DMSO (CONT), staurosporine (STS)—an agent that is known to kill cancer cells—and four select indole derivative compounds. Cell viability and proliferation was examined under a MTT assay protocol. […] The control solvent is shown as in FIG. 1A as the bar corresponding to “CONT.” When treated with only the control solvent, the cancer cells are 100% viable. Yet, according to FIG. 1A, treating cancer cells with 3-(2-bromoethyl) indole reduces cancer cell viability and proliferation by about 60% within 48 hours. As noted in FIG. 1A, 3-(2-bromoethyl) indole is represented by “INDOLE 9.” By comparison, a similar concentration of indole-3-carbinol reduces cell proliferation only by about 30%. As noted in FIG. 1A, indole-3-carbinol is represented by “INDOLE 14.”

HCT116 cells [10] = experiment: MTS assay viability index; type: cell-based; conditions: HCT116, variable concentrations
Procedure: as §4

SW480 cells [11] = experiment: Scratch wound healing assay; type: cell-based; conditions: SW480, 25 μM, up to 96 hours
Procedure: Scratch wound healing assay was performed on SW480 cells grown to confluence. Confluent SW480 cells were scratched with a pipette tip to create cell wounds, which were treated with vehicle control solvent (DMSO) and 25 μM 3-(2-bromoethyl) indole. The ability of the cells to migrate and fill the gap created by the scratch was evaluated. […] By comparison, vehicle-treated cells filled the scratch within 96 hours. […] The ability of the cells to migrate and fill the gap was followed by light microscopy imaging at 24-hour intervals. […] The scratch wound is most visible as a clear space at t0. […] Only a few single cells treated with 3-(2-bromoethyl) indole were visible and scattered in the gap. Moreover, there was no evidence of cell division.

NF-kB [12] = conditions: SW480 reporter cells; cited from earlier work

T1 sequence (P08659 whole entry, species assumed): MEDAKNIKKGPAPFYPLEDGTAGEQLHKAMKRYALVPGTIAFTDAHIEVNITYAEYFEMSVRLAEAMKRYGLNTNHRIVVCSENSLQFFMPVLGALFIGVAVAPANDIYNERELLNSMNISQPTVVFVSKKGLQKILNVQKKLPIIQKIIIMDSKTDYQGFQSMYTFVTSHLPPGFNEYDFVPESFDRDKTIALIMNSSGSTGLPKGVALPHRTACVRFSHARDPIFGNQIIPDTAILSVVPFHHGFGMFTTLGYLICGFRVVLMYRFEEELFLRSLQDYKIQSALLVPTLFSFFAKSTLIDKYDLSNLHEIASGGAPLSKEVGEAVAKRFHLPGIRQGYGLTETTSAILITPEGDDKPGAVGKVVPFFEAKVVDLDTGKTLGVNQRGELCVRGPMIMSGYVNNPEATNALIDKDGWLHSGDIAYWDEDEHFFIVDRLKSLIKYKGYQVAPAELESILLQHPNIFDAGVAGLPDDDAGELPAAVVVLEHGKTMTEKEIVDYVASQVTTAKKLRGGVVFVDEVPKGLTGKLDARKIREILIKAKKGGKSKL

TNFα
sign of cell apoptosis, single agent (SW480 cells [1]): fails to indicate any sign of cell apoptosis

BrCCc1c[nH]c2ccccc12 [3-(2-bromoethyl) indole]
recovery of cells after wash-out (SW480 colon cancer cells [2]): not able to recover at all
cell cycle profile, proliferation (SW480 cancer cells; SW480, 50 μM, 24 and 48 hours): effectively prevents proliferation
induction of sub-G1 population indicative of apoptosis (SW480 cancer cells; SW480, 24 and 48 hours after treatment): no apparent induction of sub-G1 population
apoptosis as accumulation of sub-G1 population, sequential treatment (SW480 cancer cells; SW480, CPT for 24 hours followed by BEI-9 for 24 hours): appearance of a distinct sub-G1 population
doses that inhibit cell proliferation (SW480 cancer cells; SW480, dose response examination and cell cycle analysis, 12.5 to 100 μM): lower than 50 μM
apoptosis as accumulation of sub-G1 population, co-treatment of CPT and BEI-9 (SW480 cancer cells; SW480, flow cytometry): did not induce apoptosis
apoptosis as accumulation of sub-G1 population, single agent (SW480 cancer cells; SW480, flow cytometry): did not induce apoptosis
cell death in cell cycle analysis (SW480 cancer cells; SW480, highest concentration tested 100 μM): Cell death is noticed
proliferation of HCT116 cells (HCT116 cells [3]): completely stopped the proliferation
inhibition of luciferase by competing with cellular ATP (luciferase [4]): does not inhibit luciferase
direct inhibition of luciferase (luciferase [5]): does not inhibit luciferase
difference between the effects of 0.5 μM and 5 μM on TNFα-activated NF-kB reporter (NF-kB [6]; SW480-NFL, 25 ng/ml TNFα): over 10 fold
activation of NF-kB reporter activity by TNFα (NF-kB [6]; SW480-NFL, 25 ng/ml TNFα, 5 μM or 10 μM compound): completely abolished
basal luciferase reporter activity (NF-kB [6]; SW480-NFL, 24 hours after treatment): reduced the reporter activity
effect on CPT-induced NF-kB reporter activity (NF-kB [6]; SW480 reporter cells, 0.5 μM CPT, 0.2 μM BEI-9): did not have any noticeable effect
inhibition of CPT-induced NF-kB response (NF-kB [6]; SW480 reporter cells, 0.5 μM CPT, BEI-9 concentrations greater than 0.8 μM, versus CPT-only): more than 50%
cell proliferation by microscopic evaluation (SW480 colon cancer cells [7]): failed to multiply
expression of cyclin A protein (cyclin A): drastically decreased
expression of cyclin D1 protein (cyclin D1): drastically decreased
cytotoxicity at 12.5 µM (SW480 colon cancer cells [8]): ~50%
reduction of cancer cell viability and proliferation (SW480 colon cancer cells [9]; SW480, within 48 hours, relative to control solvent DMSO): about 60%
viability index (absorbance 490 nm) (HCT116 cells [10]): decreased the viability index
motility, ability to migrate and fill the wound gap (SW480 cells [11]): markedly inhibited the motility
sign of cell apoptosis, single agent (SW480 cells [1]): fails to indicate any sign of cell apoptosis
sign of cell apoptosis, combination with TNFα (SW480 cells [1]; SW480, 5 μM compound combined with 25 ng/ml TNFα): appearance of cells with membrane blebs

COc1ccc2[nH]ccc2c1 [5-methoxyindole, reference compound]
expression of cyclin A protein (cyclin A): did not exhibit the same beneficial effects
expression of cyclin D1 protein (cyclin D1): did not exhibit the same beneficial effects

OCc1c[nH]c2ccccc12 [indole-3-carbinol, reference compound]
reduction of cancer cell viability and proliferation (SW480 colon cancer cells [9]): about 30%

CC[C@@]1(O)C(=O)OCc2c1cc1n(c2=O)Cc2cc3ccccc3nc2-1 [camptothecin]
apoptosis as accumulation of sub-G1 population, single agent (SW480 cancer cells; SW480, flow cytometry): did not induce apoptosis
peak activating concentrations for NF-kB activation (NF-kB [12]): 0.5 µM and 1.0 µM
